Data published in patent publication US10519152B2, “Compounds and their use in treating cancer” (AstraZeneca AB, priority 2017, dated 2019).

Biological target: T1, Estrogen Receptor (ERα) in MCF-7 human ductal carcinoma breast cell line (Homo sapiens, UniProt P03372)
T1 construct: endogenous in cells; host or cells: MCF-7
T1 sequence (P03372 1-595): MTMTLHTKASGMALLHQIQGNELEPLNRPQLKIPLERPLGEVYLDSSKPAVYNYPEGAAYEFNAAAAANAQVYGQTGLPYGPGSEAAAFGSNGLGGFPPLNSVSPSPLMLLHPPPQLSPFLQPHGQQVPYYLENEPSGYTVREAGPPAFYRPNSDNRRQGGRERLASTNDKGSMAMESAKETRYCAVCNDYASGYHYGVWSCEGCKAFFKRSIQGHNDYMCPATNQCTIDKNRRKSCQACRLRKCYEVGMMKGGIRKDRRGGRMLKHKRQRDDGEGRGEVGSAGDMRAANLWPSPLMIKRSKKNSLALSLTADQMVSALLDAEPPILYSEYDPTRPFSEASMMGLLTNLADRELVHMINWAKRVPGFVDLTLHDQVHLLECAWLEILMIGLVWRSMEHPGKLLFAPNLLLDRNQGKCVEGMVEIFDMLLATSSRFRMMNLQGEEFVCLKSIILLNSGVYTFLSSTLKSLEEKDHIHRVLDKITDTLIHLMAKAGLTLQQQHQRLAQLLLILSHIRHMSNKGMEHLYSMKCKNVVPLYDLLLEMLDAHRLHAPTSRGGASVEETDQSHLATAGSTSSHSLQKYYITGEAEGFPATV
Experiment: MCF-7 ER degradation assay (cell based immuno-fluorescence)
Settings: MCF-7 cells; for ER degradation ≥ 90% at 0.3 μM: ER degradation by fulvestrant at 0.3 μM is defined as 100%; for DC50: 18-22 hours incubation, 50% reduction of ERα expression, single experiment or average of two or more, read-out: MCF-7 ER degradation IC50
Summary of the method: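 MCF-7 human ductal carcinoma breast cells were seeded at 3.75×10^4 cells per mL (40 μL per well) in 384 well plates with phenol red free DMEM containing 2 mM L-Glutamine and 5% (v/v) Charcoal/Dextran treated foetal calf serum. After overnight culture, compounds were acoustically dispensed, incubated 18-22 hours, then cells were formaldehyde-fixed and immunostained for ERα.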

Structure (SMILES) | ER degradation ≥ 90% at 0.3 μM | DC50 [nM]
Cc1ncsc1-c1ccc(CNC(=O)[C@@H]2C[C@@H](O)CN2C(=O)[C@@H](NC(=O)CCCCCCOCCCOc2cc(F)c([C@@H]3c4[nH]c5ccccc5c4C[C@@H](C)N3CC(C)(C)F)c(F)c2)C(C)(C)C)cc1 [Example 110, (2S,4R)-1-((S)-2-(7-(3-(3,5-difluoro-4-((1R,3R)-2-(2-fluoro-2-methylpropyl)-3-methyl-2,3,4,9-tetrahydro-1H-pyrido[3,4-b]indol-1-yl)phenoxy)propoxy)heptanamido)-3,3-dimethylbutanoyl)-4-hydroxy-N-(4-(4-methylthiazol-5-yl)benzyl)pyrrolidine-2-carboxamide] | •• | 1.7
Cc1ncsc1-c1ccc(CNC(=O)[C@@H]2C[C@@H](O)CN2C(=O)[C@@H](NC(=O)CCCCCCCOCCOc2cc(F)c([C@@H]3c4[nH]c5ccccc5c4C[C@@H](C)N3CC(C)(C)F)c(F)c2)C(C)(C)C)cc1 [Example 111, (2S,4R)-1-((S)-2-(8-(2-(3,5-Difluoro-4-((1R,3R)-2-(2-fluoro-2-methylpropyl)-3-methyl-2,3,4,9-tetrahydro-1H-pyrido[3,4-b]indol-1-yl)phenoxy)ethoxy)octanamido)-3,3-dimethylbutanoyl)-4-hydroxy-N-(4-(4-methylthiazol-5-yl)benzyl)pyrrolidine-2-carboxamide] | • | 0.8
Cc1ncsc1-c1ccc(CNC(=O)[C@@H]2C[C@@H](O)CN2C(=O)[C@@H](NC(=O)CCCOCCCCCCOc2cc(F)c([C@@H]3c4[nH]c5ccccc5c4C[C@@H](C)N3CC(C)(C)F)c(F)c2)C(C)(C)C)cc1 [Example 112, (2S,4R)-1-((S)-2-(4-((6-(3,5-difluoro-4-((1R,3R)-2-(2-fluoro-2-methylpropyl)-3-methyl-2,3,4,9-tetrahydro-1H-pyrido[3,4-b]indol-1-yl)phenoxy)hexyl)oxy)butanamido)-3,3-dimethylbutanoyl)-4-hydroxy-N-(4-(4-methylthiazol-5-yl)benzyl)pyrrolidine-2-carboxamide] | •• | 2.2
Cc1ncsc1-c1ccc(CNC(=O)[C@@H]2C[C@@H](O)CN2C(=O)[C@@H](NC(=O)CCCCOCCCCCOc2cc(F)c([C@@H]3c4[nH]c5ccccc5c4C[C@@H](C)N3CC(C)(C)F)c(F)c2)C(C)(C)C)cc1 [Example 113, (2S,4R)-1-((S)-2-(5-((5-(3,5-Difluoro-4-((1R,3R)-2-(2-fluoro-2-methylpropyl)-3-methyl-2,3,4,9-tetrahydro-1H-pyrido[3,4-b]indol-1-yl)phenoxy)pentyl)oxy)pentanamido)-3,3-dimethylbutanoyl)-4-hydroxy-N-(4-(4-methylthiazol-5-yl)benzyl)pyrrolidine-2-carboxamide] | •• | 0.9
Cc1ncsc1-c1ccc([C@H](C)NC(=O)[C@@H]2C[C@@H](O)CN2C(=O)[C@@H](NC(=O)CCOCCCCCCCOc2cc(F)c([C@@H]3c4[nH]c5ccccc5c4C[C@@H](C)N3CC(C)(C)F)c(F)c2)C(C)(C)C)cc1 [Example 114, (2S,4R)-1-((S)-2-(3-((7-(3,5-difluoro-4-((1R,3R)-2-(2-fluoro-2-methylpropyl)-3-methyl-2,3,4,9-tetrahydro-1H-pyrido[3,4-b]indol-1-yl)phenoxy)heptyl)oxy)propanamido)-3,3-dimethylbutanoyl)-4-hydroxy-N—((S)-1-(4-(4-methylthiazol-5-yl)phenyl)ethyl)pyrrolidine-2-carboxamide] | •• | 3.6
Cc1ncsc1-c1ccc(CNC(=O)[C@@H]2C[C@@H](O)CN2C(=O)[C@@H](NC(=O)CCOCCCCCCCOc2cc(F)c([C@@H]3c4[nH]c5ccccc5c4C[C@@H](C)N3CC(C)(C)F)c(F)c2)C(C)(C)C)cc1 [Example 115, (2S,4R)-1-((S)-2-(3-((7-(3,5-difluoro-4-((1R,3R)-2-(2-fluoro-2-methylpropyl)-3-methyl-2,3,4,9-tetrahydro-1H-pyrido[3,4-b]indol-1-yl)phenoxy)heptyl)oxy)propanamido)-3,3-dimethylbutanoyl)-4-hydroxy-N-(4-(4-methylthiazol-5-yl)benzyl)pyrrolidine-2-carboxamide] | •• | 3.4
Cc1ncsc1-c1ccc(CNC(=O)[C@@H]2C[C@@H](O)CN2C(=O)[C@@H](NC(=O)C(F)(F)OCCCCCCOc2cc(F)c([C@@H]3c4[nH]c5ccccc5c4C[C@@H](C)N3CC(C)(C)F)c(F)c2)C(C)(C)C)cc1 [Example 116, (2S,4R)-1-((S)-2-(2-((6-(3,5-Difluoro-4-((1R,3R)-2-(2-fluoro-2-methylpropyl)-3-methyl-2,3,4,9-tetrahydro-1H-pyrido[3,4-b]indol-1-yl)phenoxy)hexyl)oxy)-2,2-difluoroacetamido)-3,3-dimethylbutanoyl)-4-hydroxy-N-(4-(4-methylthiazol-5-yl)benzyl)pyrrolidine-2-carboxamide] | • | 5.3
Cc1ncsc1-c1ccc(CNC(=O)[C@@H]2C[C@@H](O)CN2C(=O)[C@@H](NC(=O)C2(OCCCCCCOc3cc(F)c([C@@H]4c5[nH]c6ccccc6c5C[C@@H](C)N4CC(C)(C)F)c(F)c3)CC2)C(C)(C)C)cc1 [Example 118, (2S,4R)-1-((S)-2-(1-((6-(3,5-difluoro-4-((1R,3R)-2-(2-fluoro-2-methylpropyl)-3-methyl-2,3,4,9-tetrahydro-1H-pyrido[3,4-b]indol-1-yl)phenoxy)hexyl)oxy)cyclopropane-1-carboxamido)-3,3-dimethylbutanoyl)-4-hydroxy-N-(4-(4-methylthiazol-5-yl)benzyl)pyrrolidine-2-carboxamide] | • | 4.7
Cc1ncsc1-c1ccc(CNC(=O)[C@@H]2C[C@@H](O)CN2C(=O)[C@@H](NC(=O)C(F)(F)OCCCOCCCOc2cc(F)c([C@@H]3c4[nH]c5ccccc5c4C[C@@H](C)N3CC(C)(C)F)c(F)c2)C(C)(C)C)cc1 [Example 119, (2S,4R)-1-((S)-2-(2-(3-(3-(3,5-Difluoro-4-((1R,3R)-2-(2-fluoro-2-methylpropyl)-3-methyl-2,3,4,9-tetrahydro-1H-pyrido[3,4-b]indol-1-yl)phenoxy)propoxy)propoxy)-2,2-difluoroacetamido)-3,3-dimethylbutanoyl)-4-hydroxy-N-(4-(4-methylthiazol-5-yl)benzyl)pyrrolidine-2-carboxamide] | • | 1.4
Cc1ncsc1-c1ccc([C@H](C)NC(=O)[C@@H]2C[C@@H](O)CN2C(=O)[C@@H](NC(=O)C(F)(F)OCCCOCCCOc2cc(F)c([C@@H]3c4[nH]c5ccccc5c4C[C@@H](C)N3CC(C)(C)F)c(F)c2)C(C)(C)C)cc1 [Example 120, (2S,4R)-1-((S)-2-(2-(3-(3-(3,5-Difluoro-4-((1R,3R)-2-(2-fluoro-2-methylpropyl)-3-methyl-2,3,4,9-tetrahydro-1H-pyrido[3,4-b]indol-1-yl)phenoxy)propoxy)propoxy)-2,2-difluoroacetamido)-3,3-dimethylbutanoyl)-4-hydroxy-N—((S)-1-(4-(4-methylthiazol-5-yl)phenyl)ethyl)pyrrolidine-2-carboxamide] | •• | 1.6
